From US7662832B2, “Pyrrolo[2,3-c]pyridine derivatives and processes for the preparation thereof” (priority 2004, dated 2010)
Structures can show the parent of a compound that is named as a salt.

What follows are molecules tested against Proton Pump (H^+/K^+-ATPase) (Sus scrofa, UniProt P19156) (assay: Inhibitory effects on proton pump (H^+/K^+-ATPase) activity). Conditions: hog gastric vesicles; K^+ stimulated H^+/K^+-ATPase activity; 30 minutes at 37° C.
Format: biochemical

Chain of Proton Pump (H^+/K^+-ATPase) (P19156 2-1034 limits assumed): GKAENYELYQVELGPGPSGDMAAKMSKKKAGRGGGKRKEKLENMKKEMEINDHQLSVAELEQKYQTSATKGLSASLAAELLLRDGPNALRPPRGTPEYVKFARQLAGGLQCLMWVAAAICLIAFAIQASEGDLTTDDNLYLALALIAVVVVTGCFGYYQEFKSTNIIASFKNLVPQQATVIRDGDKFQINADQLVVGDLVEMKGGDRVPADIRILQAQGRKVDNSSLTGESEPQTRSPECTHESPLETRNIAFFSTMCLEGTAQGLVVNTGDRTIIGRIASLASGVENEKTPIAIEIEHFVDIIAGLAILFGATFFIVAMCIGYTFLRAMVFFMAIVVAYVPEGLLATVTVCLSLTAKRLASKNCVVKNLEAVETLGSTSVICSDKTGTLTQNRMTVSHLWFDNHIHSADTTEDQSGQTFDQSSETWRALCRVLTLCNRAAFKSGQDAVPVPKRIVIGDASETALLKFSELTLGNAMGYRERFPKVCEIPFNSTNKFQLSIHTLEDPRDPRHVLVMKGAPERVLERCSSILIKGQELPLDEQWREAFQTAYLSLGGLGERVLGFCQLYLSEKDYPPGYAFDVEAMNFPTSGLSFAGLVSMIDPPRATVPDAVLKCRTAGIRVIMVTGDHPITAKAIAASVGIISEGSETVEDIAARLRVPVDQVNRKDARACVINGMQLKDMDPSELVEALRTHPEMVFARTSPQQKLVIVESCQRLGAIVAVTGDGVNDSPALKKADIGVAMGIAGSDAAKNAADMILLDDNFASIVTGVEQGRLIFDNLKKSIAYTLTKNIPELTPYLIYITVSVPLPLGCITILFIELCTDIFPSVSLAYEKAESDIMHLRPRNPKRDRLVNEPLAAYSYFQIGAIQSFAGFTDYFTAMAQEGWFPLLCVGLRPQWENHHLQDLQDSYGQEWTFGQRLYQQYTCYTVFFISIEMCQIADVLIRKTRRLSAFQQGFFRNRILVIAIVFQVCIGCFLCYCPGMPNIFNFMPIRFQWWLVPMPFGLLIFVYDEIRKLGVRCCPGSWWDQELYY
Chain of Proton Pump (H^+/K^+-ATPase) (P18434 whole entry partner): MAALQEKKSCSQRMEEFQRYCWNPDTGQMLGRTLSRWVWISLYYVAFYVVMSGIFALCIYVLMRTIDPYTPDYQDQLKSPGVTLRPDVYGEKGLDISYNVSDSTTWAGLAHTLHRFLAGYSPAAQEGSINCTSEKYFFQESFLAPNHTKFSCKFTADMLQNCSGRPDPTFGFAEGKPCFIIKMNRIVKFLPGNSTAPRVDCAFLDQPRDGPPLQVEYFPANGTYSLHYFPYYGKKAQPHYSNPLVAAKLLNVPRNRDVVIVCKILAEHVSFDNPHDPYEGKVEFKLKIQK

| Structure (SMILES) | IC50 |
| --- | --- |
| Cc1c(C)n(Cc2ccccc2)c2c(CCc3ccccc3)nccc12 [Example 442, 1-benzyl-2,3-dimethyl-7-phenethyl-1H-pyrrolo[2,3-c]pyridine hydrochloride] | 100 nM |
| Cc1ccc(Cn2c(C)c(C)c3cc(C(=O)N4CCN(C)CC4)nc(N4CCc5ccccc5C4)c32)cc1 [Example 828, [7-(3,4-dihydro-1H-isoquinolin-2-yl)-1-(4-methylbenzyl)-2,3-dimethyl-1H-pyrrolo[2,3-c]pyridin-5-yl]-(4-methylpiperazin-1-yl)-methanone hydrochloride] | 94 nM |
| CCN1CCN(C(=O)c2cc3c(C)c(C)n(CC)c3c(N3CCc4ccccc4C3)n2)CC1 [Example 826, [7-(3,4-dihydro-1H-isoquinolin-2-yl)-1-ethyl-2,3-dimethyl-1H-pyrrolo[2,3-c]pyridin-5-yl]-(4-ethylpiperazin-1-yl)-methanone hydrochloride] | 16 nM |
| C=Cc1ccc(-c2nccc3c(C)c(C)n(Cc4ccc(F)cc4)c23)cc1 [Example 258, 2,3-dimethyl-1-(4-fluorobenzyl)-7-(4-vinylphenyl)-1H-pyrrolo[2,3-c]pyridine hydrochloride] | 330 nM |
| CCn1c(C)c(C)c2ccnc(N3CCc4ccccc4C3)c21 [Example 481, 1-ethyl-7-(1,2,3,4-tetrahydroisoquinolin-2-yl)-2,3-dimethyl-1H-pyrrolo[2,3-c]pyridine hydrochloride] | 59 nM |
| CC=Cn1c(C)c(C)c2ccnc(CNc3ccc(F)cc3)c21 [Example 108, N-(2,3-dimethyl-1-propenyl-1H-pyrrolo[2,3-c]pyridin-7-ylmethyl)-4-fluorophenylamine hydrochloride] | 424 nM |
| COc1ccc(Cn2c(C)c(C)c3cc(C(=O)N4CCN(C)CC4)nc(N4CCc5ccccc5C4)c32)cc1 [Example 829, [7-(3,4-dihydro-1H-isoquinolin-2-yl)-1-(4-methoxybenzyl)-2,3-dimethyl-1H-pyrrolo[2,3-c]pyridin-5-yl]-(4-methylpiperazin-1-yl)-methanone hydrochloride] | 79 nM |
| Cc1ccc(-c2nccc3c(C)c(C)n(Cc4ccc(Cl)cc4)c23)cc1 [Example 283, 1-(4-chlorobenzyl)-2,3-dimethyl-7-(p-tolyl)-1H-pyrrolo[2,3-c]pyridine hydrochloride] | 1740 nM |
| Cc1c(C)n(Cc2cccc(F)c2)c2c(N3CCc4ccccc4C3)nc(CNC3CC3)cc12 [Example 871, N-[7-(3,4-dihydro-1H-isoquinolin-2-yl)-1-(3-fluorobenzyl)-2,3-dimethyl-1H-pyrrolo[2,3-c]pyridin-5-ylmethyl]-cyclopropylamine hydrochloride] | 37 nM |
| CCCn1c(C)c(C)c2cc(C(=O)N3CCCCC3)nc(N3CCc4ccccc4C3)c21 [Example 801, [7-(3,4-dihydro-1H-isoquinolin-2-yl)-2,3-dimethyl-1-propyl-1H-pyrrolo[2,3-c]pyridin-5-yl]-(piperidin-1-yl)-methanone hydrochloride] | 158 nM |
| Cc1c(C)n(CC(C)C)c2c(N3CCc4ccccc4C3)nc(C(=O)N3CCNCC3)cc12 [Example 815, [7-(3,4-dihydro-1H-isoquinolin-2-yl)-1-isobutyl-2,3-dimethyl-1H-pyrrolo[2,3-c]pyridin-5-yl]-(piperazin-1-yl)-methanone hydrochloride] | 29 nM |
| C=CCn1c(C)c(C)c2ccnc(N3CCc4ccc(Cl)cc4C3C)c21 (stereo not shown) [Example 531, 7-chloro-2-(1-allyl-2,3-dimethyl-1H-pyrrolo[2,3-c]pyridin-7-yl)-1-methyl-1,2,3,4-tetrahydroisoquinoline hydrochloride] | 190 nM |
| Cc1cccc(Cn2c(C)c(C)c3cc(C(=O)N4CCCCC4)nc(N4CCc5ccccc5C4)c32)c1 [Example 798, [7-(3,4-dihydro-1H-isoquinolin-2-yl)-2,3-dimethyl-1-(3-methylbenzyl)-1H-pyrrolo[2,3-c]pyridin-5-yl]-(piperidin-1-yl)-methanone hydrochloride] | 220 nM |
| CC(C)=CCn1c(C)c(C)c2ccnc(N3CCc4ccc(Cl)cc4C3C)c21 (stereo not shown) [Example 534, 7-chloro-2-[2,3-dimethyl-1-(3-methylbut-2-enyl)-1H-pyrrolo[2,3-c]pyridin-7-yl]-1-methyl-1,2,3,4-tetrahydroisoquinoline hydrochloride] | 400 nM |
| Cc1c(C)n(Cc2cccc(Cl)c2)c2c(N3CCc4ccccc4C3)nc(C#N)cc12 [Example 689, 1-(3-chlorobenzyl)-7-(3,4-dihydro-1H-isoquinolin-2-yl)-2,3-dimethyl-1H-pyrrolo[2,3-c]pyridin-5-carbonitrile] | 331 nM |
| Cc1c(C)n(Cc2cccnc2)c2c(N3CCc4ccccc4C3)nccc12 [Example 516, 1-(pyridin-3-ylmethyl)-7-(1,2,3,4-tetrahydroisoquinolin-2-yl)-2,3-dimethyl-1H-pyrrolo[2,3-c]pyridine hydrochloride] | 124 nM |
| CCCn1c(C)c(C)c2ccnc(NCc3ccc(F)cc3)c21 [Example 228, 7-(4-fluorobenzylamino)-2,3-dimethyl-1-propyl-1H-pyrrolo[2,3-c]pyridine hydrochloride] | 133 nM |

| Structure (SMILES) | IC50 |
| --- | --- |
| C=CCn1c(C)c(C)c2ccnc(-c3ccc(SC)cc3)c21 [Example 263, 1-allyl-2,3-dimethyl-7-(4-methylsulfanylphenyl)-1H-pyrrolo[2,3-c]pyridine hydrochloride] | 75 nM |
| Cc1cccc(Cn2c(C)c(C)c3cc(C(=O)N4CCNCC4)nc(N4CCc5ccccc5C4)c32)c1 [Example 814, [7-(3,4-dihydro-1H-isoquinolin-2-yl)-2,3-dimethyl-1-(3-methylbenzyl)-1H-pyrrolo[2,3-c]pyridin-5-yl]-(piperazin-1-yl)-methanone hydrochloride] | 31 nM |
| Cc1[nH]c2c(N3CCc4ccccc4C3C)nccc2c1C (stereo not shown) [Example 552, 2-(2,3-dimethyl-1H-pyrrolo[2,3-c]pyridin-7-yl)-1-methyl-1,2,3,4-tetrahydroisoquinoline hydrochloride] | 36 nM |
| Cc1c(C)n(Cc2cccc(F)c2)c2c(N3CCc4ccccc4C3)nc(C(=O)O)cc12 [Example 737, 7-(3,4-dihydro-1H-isoquinolin-2-yl)-1-(3-fluorobenzyl)-2,3-dimethyl-1H-pyrrolo[2,3-c]pyridin-5-carboxylic acid] | 25 nM |
| CCCn1c(C)c(C)c2ccnc(NCc3ccccc3C)c21 [Example 230, 2,3-dimethyl-7-(2-methylbenzylamino)-1-propyl-1H-pyrrolo[2,3-c]pyridine hydrochloride] | 92 nM |
| Cc1c(C)n(Cc2ccc3ccccc3c2)c2c(N3CCc4ccccc4C3)nccc12 [Example 502, 1-(naphthalen-2-ylmethyl)-7-(1,2,3,4-tetrahydroisoquinolin-2-yl)-2,3-dimethyl-1H-pyrrolo[2,3-c]pyridine hydrochloride] | 300 nM |
| C=CCn1c(C)c(C)c2cc(C(=O)NC)nc(N3CCc4ccccc4C3)c21 [Example 757, 1-allyl-7-(3,4-dihydro-1H-isoquinolin-2-yl)-2,3-dimethyl-N-methyl-1H-pyrrolo[2,3-c]pyridin-5-carboxamide hydrochloride] | 30 nM |
| Cc1[nH]c2c(N3CCc4ccccc4C3)nc(C(=O)N3CCCCC3)cc2c1C [Example 791, [7-(3,4-dihydro-1H-isoquinolin-2-yl)-2,3-dimethyl-1H-pyrrolo[2,3-c]pyridin-5-yl]-(piperidin-1-yl)-methanone hydrochloride] | 122 nM |
| CCCn1c(C)c(C)c2cc(C#N)nc(N3CCc4ccccc4C3)c21 [Example 697, 7-(3,4-dihydro-1H-isoquinolin-2-yl)-2,3-dimethyl-1-propyl-1H-pyrrolo[2,3-c]pyridin-5-carbonitrile] | 3200 nM |
| CCn1c(C)c(C)c2cc(C(=O)N3CCCC3)nc(N3CCc4ccccc4C3)c21 [Example 803, [7-(3,4-dihydro-1H-isoquinolin-2-yl)-1-ethyl-2,3-dimethyl-1H-pyrrolo[2,3-c]pyridin-5-yl]-(pyrrolidin-1-yl)-methanone hydrochloride] | 35 nM |
| COc1cccc(Cn2c(C)c(C)c3cc(C(=O)N4CCOCC4)nc(N4CCc5ccccc5C4)c32)c1 [Example 780, [7-(3,4-dihydro-1H-isoquinolin-2-yl)-1-(3-methoxybenzyl)-2,3-dimethyl-1H-pyrrolo[2,3-c]pyridin-5-yl]-(morpholin-4-yl)-methanone hydrochloride] | 125 nM |
| Cc1c(C)n(CCC(C)Cl)c2c(N3CCc4ccccc4C3)nccc12 (stereo not shown) [Example 513, 1-(3-chlorobutyl)-7-(1,2,3,4-tetrahydroisoquinolin-2-yl)-2,3-dimethyl-1H-pyrrolo[2,3-c]pyridine hydrochloride] | 74 nM |
| Cc1c(C)n(CC2CC2)c2c(-c3ccc4ccccc4c3)nccc12 [Example 403, 1-cyclopropylmethyl-2,3-dimethyl-7-(naphthalen-2-yl)-1H-pyrrolo[2,3-c]pyridine hydrochloride] | 70 nM |
| Cc1cccc(Cn2c(C)c(C)c3cc(C(=O)N4CCN(C)CC4)nc(N4CCc5ccccc5C4)c32)c1 [Example 820, [7-(3,4-dihydro-1H-isoquinolin-2-yl)-2,3-dimethyl-1-(3-methylbenzyl)-1H-pyrrolo[2,3-c]pyridin-5-yl]-(4-methylpiperazin-1-yl)-methanone hydrochloride] | 37 nM |
| Cc1c(C)n(CC2CC2)c2c(N3CCc4ccccc4C3)nc(C(=O)O)cc12 [Example 740, 1-cyclopropylmethyl-7-(3,4-dihydro-1H-isoquinolin-2-yl)-2,3-dimethyl-1H-pyrrolo[2,3-c]pyridin-5-carboxylic acid] | 267 nM |
| Cc1c(C)n(Cc2cccc(F)c2)c2c(N3CCc4ccc(Cl)cc4C3C)nccc12 (stereo not shown) [Example 539, 7-chloro-2-[1-(3-fluorobenzyl)-2,3-dimethyl-1H-pyrrolo[2,3-c]pyridin-7-yl]-1-methyl-1,2,3,4-tetrahydroisoquinoline hydrochloride] | 250 nM |
| Cc1cccc(Cn2c(C)c(C)c3ccnc(CN(C)c4ccc(F)cc4)c32)c1 [Example 126, N-[2,3-dimethyl-1-(3-methylbenzyl)-1H-pyrrolo[2,3-c]pyridin-7-ylmethyl]-N-(4-fluorophenyl)-methylamine hydrochloride] | 397 nM |
